Earlier results, collected in patent US4361703A, “Para-amino(or nitro)phenyl N-acetylaminothioalkanoates” (priority 1977, dated 1982).

Tests used:
[1] = tested on: mice; conditions: mouse, in vivo; cited from earlier work
[2] = tested on: death and liver injury; conditions: cited from earlier work
[3] = tested on: lethal and hepatotoxic effects of paracetamol overdosage; conditions: cited from earlier work

Compound	48 hour survival [1]	effect of methionine added to oral paracetamol dose [2]	effect of methionine combined with paracetamol [3]
CC(=O)N[C@@H](CS)C(=O)O [N-acetylcysteine]	significantly improved 48 hour survival in mice		
CSCC[C@H](N)C(=O)O [methionine]		protects against death and liver injury	greatly reducing the lethal and hepatotoxic effects of paracetamol overdosage
